# From ChEMBL document CHEMBL1201862, “PubChem BioAssay data set” (2004)
# Calls of active or inactive are those of the source.
# Assays:
# [1] = Counterscreen for activators of the function of SWI/SNF related, matrix associated, actin dependent regulator of chromatin, subfamily a, member 2 (SMARCA2, BRM): Luminescence-based cell-based high throughput dose response assay to identify non-selective compounds using the VP16 reporter assay.; format: functional
# [2] = molecular target: SWI/SNF-related matrix-associated actin-dependent regulator of chromatin subfamily A member 2 (Homo sapiens, UniProt P51531); experiment: Luminescence-based cell-based high throughput dose response assay to identify activators of the function of SWI/SNF related, matrix associated, actin dependent regulator of chromatin, subfamily a, member 2 (SMARCA2, BRM).; format: functional
# Sequence of SWI/SNF-related matrix-associated actin-dependent regulator of chromatin subfamily A member 2 (P51531 whole entry): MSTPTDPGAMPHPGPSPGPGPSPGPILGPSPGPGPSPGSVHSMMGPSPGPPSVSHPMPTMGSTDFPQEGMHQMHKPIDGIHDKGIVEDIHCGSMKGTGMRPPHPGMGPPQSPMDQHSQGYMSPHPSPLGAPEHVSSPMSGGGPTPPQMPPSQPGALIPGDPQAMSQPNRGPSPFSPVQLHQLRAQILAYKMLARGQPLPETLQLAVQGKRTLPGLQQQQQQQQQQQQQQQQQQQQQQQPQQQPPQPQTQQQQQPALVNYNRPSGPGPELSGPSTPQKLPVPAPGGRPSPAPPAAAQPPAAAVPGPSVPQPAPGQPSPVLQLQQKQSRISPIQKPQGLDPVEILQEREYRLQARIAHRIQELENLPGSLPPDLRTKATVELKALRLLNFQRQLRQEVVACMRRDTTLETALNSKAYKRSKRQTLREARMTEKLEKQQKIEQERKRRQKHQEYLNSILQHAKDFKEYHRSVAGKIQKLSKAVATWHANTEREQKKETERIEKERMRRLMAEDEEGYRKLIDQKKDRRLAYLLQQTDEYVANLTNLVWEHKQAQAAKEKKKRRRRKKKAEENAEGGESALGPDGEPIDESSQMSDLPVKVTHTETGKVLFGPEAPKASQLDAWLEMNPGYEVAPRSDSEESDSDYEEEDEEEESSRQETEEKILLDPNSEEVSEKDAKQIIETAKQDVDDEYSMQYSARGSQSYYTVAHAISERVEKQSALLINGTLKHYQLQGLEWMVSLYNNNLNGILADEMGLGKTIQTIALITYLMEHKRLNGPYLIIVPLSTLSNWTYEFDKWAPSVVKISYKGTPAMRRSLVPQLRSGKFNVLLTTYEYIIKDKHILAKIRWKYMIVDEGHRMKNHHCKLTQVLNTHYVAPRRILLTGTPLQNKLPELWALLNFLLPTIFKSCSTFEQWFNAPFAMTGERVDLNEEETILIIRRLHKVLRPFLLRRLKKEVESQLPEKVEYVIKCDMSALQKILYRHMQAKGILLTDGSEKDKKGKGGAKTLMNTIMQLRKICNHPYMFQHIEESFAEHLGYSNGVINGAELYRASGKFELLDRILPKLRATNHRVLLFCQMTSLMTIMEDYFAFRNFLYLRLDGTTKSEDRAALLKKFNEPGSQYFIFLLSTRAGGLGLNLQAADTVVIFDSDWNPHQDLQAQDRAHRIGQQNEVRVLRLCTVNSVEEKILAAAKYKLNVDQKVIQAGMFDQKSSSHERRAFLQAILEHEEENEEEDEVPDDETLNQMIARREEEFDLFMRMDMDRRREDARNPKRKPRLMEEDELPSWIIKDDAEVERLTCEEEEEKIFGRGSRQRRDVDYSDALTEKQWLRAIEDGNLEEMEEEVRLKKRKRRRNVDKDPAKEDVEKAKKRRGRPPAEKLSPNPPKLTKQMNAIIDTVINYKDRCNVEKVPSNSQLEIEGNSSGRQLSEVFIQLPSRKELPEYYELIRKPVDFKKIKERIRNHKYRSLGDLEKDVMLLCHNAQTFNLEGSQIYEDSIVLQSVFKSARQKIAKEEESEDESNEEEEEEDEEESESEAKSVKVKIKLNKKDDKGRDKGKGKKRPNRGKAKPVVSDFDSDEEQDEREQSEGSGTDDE
# cells [3] = format: functional, cell-based
# cells [4] = format: functional, cell-based; remark: listed apart in the source
# [5] = molecular target: Mitogen-activated protein kinase 10 (Homo sapiens, UniProt P53779); experiment: Dose response biochemical screening assay for inhibitors of c-Jun N-Terminal Kinase 3 (JNK3). [Related pubchem assays: 746 ]
# Sequence of Mitogen-activated protein kinase 10 (P53779 whole entry): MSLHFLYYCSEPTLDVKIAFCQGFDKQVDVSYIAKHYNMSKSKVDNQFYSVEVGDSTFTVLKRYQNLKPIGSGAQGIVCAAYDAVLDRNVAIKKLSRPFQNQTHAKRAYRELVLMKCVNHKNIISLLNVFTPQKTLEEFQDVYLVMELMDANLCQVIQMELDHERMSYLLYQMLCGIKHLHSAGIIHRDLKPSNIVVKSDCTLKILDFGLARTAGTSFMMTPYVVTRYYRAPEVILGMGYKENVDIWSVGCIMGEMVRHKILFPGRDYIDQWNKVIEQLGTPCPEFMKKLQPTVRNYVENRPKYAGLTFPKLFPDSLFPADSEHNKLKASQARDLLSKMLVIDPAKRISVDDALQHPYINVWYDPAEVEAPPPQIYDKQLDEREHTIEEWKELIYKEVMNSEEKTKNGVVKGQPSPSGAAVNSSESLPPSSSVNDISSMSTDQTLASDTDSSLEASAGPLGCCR
# Estrogen receptor beta [6] = molecular target: T1, Estrogen receptor beta (Homo sapiens, UniProt Q92731);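 note: recombinant ER-beta bound to coactivator SRC1 peptide in presence of estradiol agonist; inhibitors block coactivator peptide binding and lower the FRET signal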
# T1 sequence (Q92731 whole entry): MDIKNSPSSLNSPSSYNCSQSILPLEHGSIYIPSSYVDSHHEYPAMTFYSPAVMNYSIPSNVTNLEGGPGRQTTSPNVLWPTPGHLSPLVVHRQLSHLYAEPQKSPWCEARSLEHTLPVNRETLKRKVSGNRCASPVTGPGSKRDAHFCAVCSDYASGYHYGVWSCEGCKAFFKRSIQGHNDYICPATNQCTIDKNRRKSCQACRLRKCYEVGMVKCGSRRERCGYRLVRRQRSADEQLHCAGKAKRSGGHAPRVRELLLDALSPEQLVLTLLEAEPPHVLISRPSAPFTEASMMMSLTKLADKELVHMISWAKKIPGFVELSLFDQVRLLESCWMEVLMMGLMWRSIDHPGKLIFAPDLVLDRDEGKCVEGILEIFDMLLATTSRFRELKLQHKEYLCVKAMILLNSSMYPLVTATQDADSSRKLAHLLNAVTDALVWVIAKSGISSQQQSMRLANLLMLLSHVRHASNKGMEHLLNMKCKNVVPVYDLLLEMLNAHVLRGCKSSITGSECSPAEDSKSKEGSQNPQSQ
# Estrogen receptor = molecular target: T2, Estrogen receptor (Homo sapiens, UniProt P03372);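 note: potency for inhibiting coactivator peptide recruitment to the receptor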
# T2 sequence (P03372 whole entry): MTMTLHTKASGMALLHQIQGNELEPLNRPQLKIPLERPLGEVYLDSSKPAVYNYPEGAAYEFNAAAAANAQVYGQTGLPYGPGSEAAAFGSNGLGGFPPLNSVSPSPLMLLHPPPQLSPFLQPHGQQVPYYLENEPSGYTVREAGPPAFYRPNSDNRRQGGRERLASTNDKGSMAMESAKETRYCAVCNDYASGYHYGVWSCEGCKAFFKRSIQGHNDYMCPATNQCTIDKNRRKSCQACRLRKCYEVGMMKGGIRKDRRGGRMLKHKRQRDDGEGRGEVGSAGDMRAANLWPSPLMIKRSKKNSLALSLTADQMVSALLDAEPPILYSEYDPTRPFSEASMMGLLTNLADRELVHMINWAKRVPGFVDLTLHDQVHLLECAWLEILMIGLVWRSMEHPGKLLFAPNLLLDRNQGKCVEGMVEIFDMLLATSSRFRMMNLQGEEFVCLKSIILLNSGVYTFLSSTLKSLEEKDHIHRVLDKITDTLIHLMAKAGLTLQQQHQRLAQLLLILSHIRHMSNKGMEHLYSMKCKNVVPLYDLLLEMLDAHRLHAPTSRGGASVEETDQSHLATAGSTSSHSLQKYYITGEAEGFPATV
# Estrogen receptor beta [7] = molecular target: T1, Estrogen receptor beta; experiment: ERβ–SRC-3 coactivator interaction inhibitors, confirmation, orthogonal assay, biochemical, ELISA, streptavidin-HRP readout (AID 1060)
# [8] = inhibitors of firefly luciferase expression or activity, dose response, H4 neuroglioma cells, luminescence (AID 1990); format: functional, cell-based
# [9] = inhibitors of SNCA 5'UTR-driven reporter translation, confirmation, H4 neuroglioma cells, luminescence (AID 1988); format: functional, cell-based
# [10] = Luminescence Cell-Based Dose Response HTS to Identify Inhibitors of 5'UTR Stem-Loop Driven Prion Protein mRNA Translation in H4 Neuroglioblastoma Cells. [Related pubchem assays: 1827 (Project Summary), 1813 (Primary HTS)]; format: functional
# [11] = cytotoxicity in HEK-293T cells, dose response, cytotoxicity control for BCR NF-kB inhibitor project, luminescence, B-cell screen hits (AID 489021); format: functional, cell-based;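 note: HEK-293T cells carrying an NF-kB luciferase reporter; cells exposed to compound for about 14 hours before viability readout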
# [12] = molecular target: Voltage-dependent T-type calcium channel subunit alpha-1H (Homo sapiens, UniProt O95180); format: functional;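 note: channel activity triggered by adding a high calcium stimulation buffer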
# [13] = non-specific cell cytotoxicity, dose response, cytotoxicity control for PAX8 inhibitor project, plate reader, dry powder samples (AID 743021); format: functional, cell-based
# Paired box protein Pax-8 = Paired box protein Pax-8 (Homo sapiens, UniProt Q06710); experiment: inhibitors of PAX8-driven TPO luciferase reporter, dose response, RMG-I cells, cherry-pick (AID 687027); format: functional, cell-based;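 note: luciferase reporter driven by Pax8 target thyroperoxidase promoter measured by SteadyGlo luminescence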
# Sequence of Paired box protein Pax-8 (Q06710 whole entry): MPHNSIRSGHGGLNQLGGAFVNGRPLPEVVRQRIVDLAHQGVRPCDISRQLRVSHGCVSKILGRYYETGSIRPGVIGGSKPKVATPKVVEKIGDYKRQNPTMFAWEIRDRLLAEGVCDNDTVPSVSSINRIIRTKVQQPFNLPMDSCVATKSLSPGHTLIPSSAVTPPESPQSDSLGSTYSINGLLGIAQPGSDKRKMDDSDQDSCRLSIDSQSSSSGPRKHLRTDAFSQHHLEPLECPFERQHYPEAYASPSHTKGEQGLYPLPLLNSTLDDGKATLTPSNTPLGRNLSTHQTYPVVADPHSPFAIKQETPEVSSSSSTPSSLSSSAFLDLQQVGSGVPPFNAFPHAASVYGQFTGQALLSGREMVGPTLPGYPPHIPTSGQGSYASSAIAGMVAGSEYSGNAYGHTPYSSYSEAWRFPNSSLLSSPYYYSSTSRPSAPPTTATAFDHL
# [14] = molecular target: Eukaryotic translation initiation factor 4E (Mus musculus, UniProt P63073); experiment: eIF4E–eIF4G protein interaction inhibitors, dose response, biochemical, TR-FRET (AID 855); format: functional;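 note: potency for disrupting eIF4E binding to eIF4GI seen as loss of FRET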
# Sequence of Eukaryotic translation initiation factor 4E (P63073 whole entry): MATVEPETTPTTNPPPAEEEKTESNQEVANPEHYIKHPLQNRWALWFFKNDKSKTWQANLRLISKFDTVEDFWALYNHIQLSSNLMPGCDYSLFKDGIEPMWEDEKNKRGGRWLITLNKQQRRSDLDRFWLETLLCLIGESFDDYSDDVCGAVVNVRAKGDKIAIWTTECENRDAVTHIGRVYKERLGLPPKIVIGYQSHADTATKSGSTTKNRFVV
# [15] = miR-122 activators in hepatoma reporter cells, dose response, cell-based, Huh7 psiCHECK-miR122, Renilla luciferase, cherry-picked (AID 651956); format: functional;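 note: huh7 hepatoma cells stably carrying a psiCHECK-2 miR-122 sensor plasmid; renilla luciferase signal reporting endogenous miR-122 activity after 48 h compound exposure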
# INS1 = experiment: beta cell apoptosis inhibitors, cytokine rescue, dose response, luminescence, retest (AID 449756); format: functional, cell-based; details: Rattus norvegicus;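 note: cell death triggered by IL-1 beta plus TNF-alpha plus IFN-gamma mixture; protective hits raise ATP signal compared with cytokine alone wells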
# [16] = growth suppression of beta-catenin-knockout colon cells, dose response, cell-based, HCT116, human colon tumor (AID 1045); format: functional;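 note: HCT116 colon tumor cells with beta catenin knocked out; cells exposed to compound for 60 hours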
# Vero [17] = experiment: cells; format: functional; details: Chlorocebus sabaeus
# Protein RecA = molecular target: T3, Protein RecA (Mycobacterium tuberculosis, UniProt P9WHJ3); experiment: Fluorescence Cell-Free Homogeneous Dose Retest to Identify Inhibitors of RecA-Intein Splicing Activity. [Related pubchem assays (depositor defined):AID2097, AID2223, AID489010, AID492950]; format: functional
# T3 sequence (P9WHJ3 whole entry): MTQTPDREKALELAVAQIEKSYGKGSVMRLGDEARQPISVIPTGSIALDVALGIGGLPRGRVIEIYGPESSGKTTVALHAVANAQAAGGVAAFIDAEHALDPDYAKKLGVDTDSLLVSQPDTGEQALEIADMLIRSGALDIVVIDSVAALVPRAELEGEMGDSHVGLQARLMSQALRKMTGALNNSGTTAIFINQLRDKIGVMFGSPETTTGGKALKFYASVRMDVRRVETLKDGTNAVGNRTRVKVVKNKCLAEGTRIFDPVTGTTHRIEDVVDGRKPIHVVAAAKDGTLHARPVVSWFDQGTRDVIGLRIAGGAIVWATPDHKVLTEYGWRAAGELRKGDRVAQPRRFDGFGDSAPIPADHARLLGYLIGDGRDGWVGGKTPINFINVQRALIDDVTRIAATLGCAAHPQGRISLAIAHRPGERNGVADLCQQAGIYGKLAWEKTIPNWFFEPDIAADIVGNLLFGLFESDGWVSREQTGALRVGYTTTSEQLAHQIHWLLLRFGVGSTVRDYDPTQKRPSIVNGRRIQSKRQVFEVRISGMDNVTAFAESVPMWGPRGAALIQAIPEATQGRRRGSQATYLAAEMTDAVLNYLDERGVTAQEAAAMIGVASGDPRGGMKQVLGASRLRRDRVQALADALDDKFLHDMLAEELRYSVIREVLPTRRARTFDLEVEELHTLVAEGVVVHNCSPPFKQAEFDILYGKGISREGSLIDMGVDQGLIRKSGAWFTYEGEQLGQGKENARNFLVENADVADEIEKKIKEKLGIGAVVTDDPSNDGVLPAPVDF
# [18] = Luminescence Cell-Based Dose Retest to Confirm Inhibitors of Cancer Stem Cells. [Related pubchem assays (depositor defined):AID2717, AID2721]; format: functional; details: Homo sapiens
# [19] = molecular target: T4, Replicative DNA helicase DnaB (Mycobacterium tuberculosis, UniProt P9WMR3); experiment: DnaB intein splicing inhibitors, dose response, biochemical, cell-free fluorescence (AID 449749); format: functional
# T4 sequence (P9WMR3 whole entry): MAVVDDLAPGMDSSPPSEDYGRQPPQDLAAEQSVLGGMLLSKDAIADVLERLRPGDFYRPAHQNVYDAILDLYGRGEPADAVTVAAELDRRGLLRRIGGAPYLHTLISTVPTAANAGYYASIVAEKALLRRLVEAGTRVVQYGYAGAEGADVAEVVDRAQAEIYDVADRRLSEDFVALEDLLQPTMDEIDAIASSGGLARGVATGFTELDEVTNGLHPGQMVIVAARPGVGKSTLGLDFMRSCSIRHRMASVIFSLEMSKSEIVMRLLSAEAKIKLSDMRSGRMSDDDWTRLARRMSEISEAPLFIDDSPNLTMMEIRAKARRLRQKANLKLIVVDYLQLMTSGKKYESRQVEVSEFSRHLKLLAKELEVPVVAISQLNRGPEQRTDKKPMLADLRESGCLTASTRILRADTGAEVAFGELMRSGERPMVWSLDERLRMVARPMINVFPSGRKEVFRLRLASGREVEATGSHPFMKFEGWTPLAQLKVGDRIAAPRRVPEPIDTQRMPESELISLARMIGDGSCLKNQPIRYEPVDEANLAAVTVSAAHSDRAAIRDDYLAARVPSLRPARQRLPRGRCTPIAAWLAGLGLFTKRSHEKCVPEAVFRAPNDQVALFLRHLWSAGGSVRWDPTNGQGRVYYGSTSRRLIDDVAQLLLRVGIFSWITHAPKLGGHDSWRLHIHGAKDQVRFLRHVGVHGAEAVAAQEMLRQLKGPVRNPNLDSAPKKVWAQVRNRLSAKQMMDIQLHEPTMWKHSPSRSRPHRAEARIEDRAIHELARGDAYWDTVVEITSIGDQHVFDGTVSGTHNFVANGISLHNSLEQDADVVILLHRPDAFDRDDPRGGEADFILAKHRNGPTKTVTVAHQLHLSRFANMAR
# [20] = growth suppression of PTEN-null colon cells, dose response, cell-based, HCT116 PTEN knockout (AID 1047); format: functional;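 note: HCT116 colon tumor cells with PTEN knocked out; cells exposed to compound for 60 hours before readout; potency for loss of cell viability measured by luminescence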
# Vero [21] = experiment: cells; format: functional, cell-based; details: Chlorocebus sabaeus
# [22] = Fluorescence-based cell-based high throughput dose response assay for inhibitors of the interaction of nucleotide-binding oligomerization domain containing 2 (NOD2) and the receptor-interacting serine-threonine kinase 2 (RIPK2).; format: functional, Homo sapiens; details: Homo sapiens
# [23] = inhibitors of PGC1a acetylation in cells, dose response, cell-based, cherry-picked samples (AID 720514); format: functional;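 note: potency may reflect raised or lowered acetylation signal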
# [24] = HEK293T cytotoxicity, dose response, cytotoxicity control for miR-122 modulator project, cell-based, activator set, cherry-pick (AID 720690); format: functional;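 note: HEK293T human cells scored for general mammalian cytotoxicity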
# [25] = HepG2 cell cytotoxicity, dose response, cytotoxicity control, plate reader, cherry-pick, antagonist series (AID 743416); format: functional, cell-based
# [26] = A549 cell cytotoxicity, dose response, cytotoxicity control, plate reader, cherry-pick, antagonist series (AID 743412); format: functional, cell-based
structure (smiles),measurement,setting,value
Cc1nccc(-c2cc(-c3ccc(Cl)cc3Cl)no2)n1,EC50,[1],> 91.2 µM (inactive)
same,EC50,[2],> 91.2 µM (inactive)
Cc1c(C#N)c(O)n(CCO)c(=O)c1CN1CCCC(C)C1 (configuration not stated),EC50,cells [3],> 29.9 µM (inactive)
same,IC50,cells [4],> 29.9 µM (inactive)
CN(c1ccc(C(=O)Nc2nccs2)cc1)S(=O)(=O)c1ccccc1,IC50,[5],46.9 µM (not active)
c1ccc2[nH]c3c4ccccc4nc-3nc2c1,IC50,[5],13.9 µM (not active)
CCn1nnc(NC(=O)CSc2ccc(Cl)cc2)n1,IC50,Estrogen receptor beta [6],4.65 µM (active)
same,IC50,Estrogen receptor,9.27 µM (active)
same,IC50,Estrogen receptor beta [7],> 109 µM (not active)
CC(=O)c1c(COC(=O)c2ccco2)nc2ccccc2[n+]1[O-],IC50,Estrogen receptor beta [6],10.8 µM (active)
same,IC50,Estrogen receptor,29.2 µM (active)
same,EC50,[8],> 120 µM (not active)
same,EC50,[9],> 120 µM (not active)
same,EC50,[10],> 120 µM (not active)
same,IC50,Estrogen receptor beta [7],< 77 µM (not active)
COC(=O)c1[nH]c2ccc(C)cc2c1NC(=O)Nc1ccccc1OC,IC50,[11],> 80 µM (inactive)
Cc1nnc(SCc2nc3ccccc3s2)n1N,EC50,[1],> 91.1 µM (inactive)
same,EC50,[2],> 91.1 µM (inactive)
CS(=O)(=O)N1CCN(c2ccccc2NC(=O)CSc2ccc(Cl)cc2)CC1,IC50,[5],90.5 µM (not active)
same,EC50,[12],7.39 µM (active)
Cc1ccc(Cl)cc1N1CCN(C(=O)c2noc(C)c2[N+](=O)[O-])CC1,AC50,[13],43.2 µM (active)
same,AC50,Paired box protein Pax-8,6.41 µM (active)
Cn1c(C(C)(O)C(O)c2ccccc2)nc2ccccc21 (configuration not stated),IC50,[14],> 64 µM (inactive)
COc1cccc(CNC(=O)COC(=O)c2nc(Cl)c(Cl)c(Cl)c2Cl)c1,EC50,[1],> 91.2 µM (inactive)
same,EC50,[2],> 91.2 µM (inactive)
CC(=O)c1cccc(S(=O)(=O)NCC2CCCCC2)c1,AC50,[15],5.36 µM (active)
O=C1NC2=C(C(=O)c3ccccc32)C(c2ccccc2)N1 (configuration not stated),IC50,[5],38.3 µM (not active)
O=C(NCc1cccnc1)/C(=C\c1ccc(-c2cccc(Cl)c2)o1)S(=O)(=O)c1ccccc1,AC50,INS1,7.76 µM (active)
same,EC50,[16],2.86 µM (active)
same,CC50,Vero [17],9.17 µM (active)
same,EC50,Protein RecA,17.8 µM (active)
same,AC50,[18],2.35 µM (active)
same,AC50,[19],13.7 µM (active)
same,EC50,[20],3.2 µM (active)
same,IC50,Vero [21],22.8 µM (active)
same,IC50,[22],10.8 µM (inactive)
same,AC50,[23],15 µM (active)
CC(C)(C)OC(=O)N1CCN(c2ccc(NC(=O)Cn3nnc(-c4ccccc4)n3)cc2)CC1,IC50,Estrogen receptor beta [6],6.06 µM (active)
same,IC50,Estrogen receptor beta [7],2.7 µM (not active)
CCOc1ccc(NC(=O)CCCc2cc(-c3ccc(OCC)cc3)on2)cc1,IC50,[11],> 80 µM (inactive)
CCC(=O)N(C)C[C@H]1Oc2cc(C#CC3CCCCC3)ccc2S(=O)(=O)N([C@@H](C)CO)C[C@H]1C,AC50,[24],27.7 µM (active)
same,AC50,[15],7.88 µM (active)
CCN(C[C@@H]1N[C@@H](CO)[C@H]1c1ccc(-c2cccc(F)c2)cc1)C(=O)CN(C)C,AC50,[24],25.7 µM (active)
same,AC50,[15],13 µM (active)
N#C[C@H]1[C@@H](c2ccc(C3=CCCCC3)cc2)[C@H](CO)N1C(=O)c1ccccn1,AC50,[25],34.2 µM (active)
Cc1ccc(S(=O)(=O)Nc2ccc3c(c2)C(=O)N([C@H](C)CO)C[C@@H](C)[C@H](CN(C)S(=O)(=O)c2cccs2)OCCCC[C@@H](C)O3)cc1,AC50,[25],> 52 µM (inactive)
same,AC50,[26],32.1 µM (active)
